This passage reports glass transition temperature results from the PolyMetriX glass transition set.

Each structure is given as a SMILES string.

Consider `*C(=O)Oc1ccc(C(C)(C)c2ccc(OC(=O)c3ccc4c(c3)C(=O)N(c3ccc(Oc5ccc(N6C(=O)c7ccc(*)cc7C6=O)cc5)cc3)C4=O)cc2)cc1` (repeat unit), for which the glass transition temperature turned out to be 200.00 °C.
As for `*C(=O)c1ccc2c(c1)C(=O)N(c1cccc(Oc3cccc(Oc4cccc(N5C(=O)c6ccc(*)cc6C5=O)c4)c3)c1)C2=O` (repeat unit), the figure is 211.00 °C.
`*CC(=O)OC(=O)COc1ccc(C(C)(C)c2ccc(O*)cc2)cc1` (repeat unit) showed a glass transition temperature of 105.00 °C.
With `*CC(COc1ccc(C(C)(C)c2ccc(O*)cc2)cc1)OC(=O)/C=C/c1ccco1` (repeat unit), the glass transition temperature stood at 107.20 °C.
In the case of `*CC(COc1ccc(C(C)(C)c2ccc(O*)cc2)cc1)OC(=O)c1ccccc1` (repeat unit), the glass transition temperature was 65.00 °C.
With `*CC(COc1ccc(C(C)(c2ccccc2)c2ccc(O*)cc2)cc1)OC(=O)c1ccccc1` (repeat unit), the glass transition temperature amounted to 126.00 °C.
With `*CC(O)CN(CCO)CC(O)COc1ccc(C(C)(C)c2ccc(O*)cc2)cc1` (repeat unit) the figure was 87.10 °C; with `*CC(O)COC(=O)CCCCCCCCC(=O)OCC(O)COc1ccc(C(C)(C)c2ccc(O*)cc2)cc1` (repeat unit), 30.00 °C; with `*CC(O)COc1ccc(C(C)(C)c2ccc(OCC(O)CN3CCN(*)CC3)cc2)cc1` (repeat unit), 100.00 °C.
With `*OS(=O)(=O)c1cccc(C(=O)Oc2ccc(C(C)(C)c3ccc(*)cc3)cc2)c1` (repeat unit) the figure was 133.00 °C; with `*Oc1ccc(C(C)(C)c2ccc(OC(=O)c3ccc(C(c4ccc(C(*)=O)cc4)(C(F)(F)F)C(F)(F)F)cc3)cc2)cc1` (repeat unit), 124.00 °C; with `*Oc1ccc(C(C)(C)c2ccc(OC(=O)c3ccc(S(=O)(=O)c4ccc(C(*)=O)cc4)cc3)cc2)cc1` (repeat unit), 220.00 °C.
Turning to `*Oc1ccc(C(C)(C)c2ccc(OC(=O)c3cccc(C(*)=O)c3)c(C)c2)cc1C` (repeat unit), the glass transition temperature is 162.00 °C.
The molecule `*Oc1ccc(C(C)(c2ccccc2)c2ccc(OC(*)=S)cc2)cc1` (repeat unit) yielded a glass transition temperature of 181.00 °C.
As for `*Oc1ccc(C(C)(c2ccccc2)c2ccc(OC(=O)c3cccc(C(*)=O)c3)cc2)cc1` (repeat unit), the glass transition temperature came to 202.00 °C.
On to `*Oc1ccc(C(C)(c2ccccc2)c2ccc(OC(=O)c3ccccc3-c3ccccc3C(*)=O)cc2)cc1` (repeat unit), for which the glass transition temperature turned out to be 172.00 °C.
`*Oc1ccc(C(C)c2ccc(OC(*)=S)cc2)cc1` (repeat unit) showed a glass transition temperature of 107.00 °C.
As for `*Oc1ccc(C(CC)(c2ccccc2)c2ccc(OC(*)=S)cc2)cc1` (repeat unit), the figure is 173.00 °C.
As for `*Oc1ccc(C(c2ccc(OC3(F)C(*)(F)C(F)(F)C3(F)F)cc2)(C(F)(F)F)C(F)(F)F)cc1` (repeat unit), the figure is 122.50 °C.
As for `*Oc1ccc(C2(c3ccc(OC(=O)c4ccc(C(*)=O)cc4)c(C)c3)CCC3CCCCC3C2)cc1C` (repeat unit), the figure is 247.00 °C; as for `*Oc1ccc(C2(c3ccc(OC(=O)c4cccc(C(*)=O)c4)c(C)c3)CCC3CCCCC3C2)cc1C` (repeat unit), 207.00 °C.
`*Oc1ccc(C2(c3ccc(Oc4ccc(C(=O)Oc5ccc(C(C)(C)c6ccc(OC(=O)c7ccc(*)cc7)cc6)cc5)cc4)cc3)CCC(C(C)(C)C)CC2)cc1` (repeat unit): the glass transition temperature is 144.00 °C.
As for `*Oc1ccc2c(c1)C(C)(c1ccc(OC(=O)c3ccc(C(*)=O)cc3)cc1)CC2(C)C` (repeat unit), the glass transition temperature was found to be 252.50 °C.
With `*Oc1ccc2c(c1)C(C)(c1ccc(OC(=O)c3cccc(C(*)=O)c3)cc1)CC2(C)C` (repeat unit) the figure was 230.50 °C.
